Data: patent publication US20100150948A1, “MATERIALS AND METHODS FOR IMPROVED IMMUNOGLYCOPROTEINS” (TRUBION PHARMACEUTICALS, INC., priority 2006, published 2010)

Tests used:
[1] = system: CD37-expressing Daudi cancer B-cell line; assay: Antibody Dependent Cellular Cytotoxicity (ADCC) assay, 51Cr release, PBL effector cells; format: cell-based, human; details: TRU-016 treated with CS over a range of 100 μM-800 μM final concentration
Protocol: TRU-016 produced as described in Example 8 is incubated with the CD37-expressing Daudi cancer B-cell line in conjunction with primary human peripheral blood lymphocytes (PBL's) effector cells to assess ADCC activity.
Daudi target cells (5×10̂6) are added to a 15 ml conical tube and then centrifuged at 250×g for 5 minutes at 20° C. and the supernatant removed. The cell pellet is resuspended by the addition of 0.3 mCi Chromium-51 (^51Cr, GE Healthcare, CJ51). The cells are incubated for 75 minutes at 37° C. with 5% CO2, allowing the cells to incorporate the radioactive isotope. The cells are then washed three times to remove any unincorporated ^51Cr. This is done by adding 10 mL of complete media—IMDM (Gibco) with 10% FBS (Gibco)—to the tube, centrifuging at 250×g for 5 minutes at 20° C. followed by removal of supernatant. The final resuspension is in 11.5 mL of complete media. TRU-016 is diluted in complete media, at concentrations that are able to generate maximal to background levels of cell lysis (500 ng/mL-0.005 ng/mL). These titrations are plated out, 50 μL/well, in a round bottom 96 well plate. The ^51Cr labeled target cells are added to the dose titrations of TRU-016 at 50 μL/well and the control wells (control media without TRU-016). PBL's are isolated from fresh heparinized whole blood by density gradient centrifugation using Lymphocyte Separation Media as per protocol (LSM, MP Biomedical, 50494/36427). […] The assay is incubated for 4.5-5 hours at 37° C., 5% CO2. The effector cells lyse the target cells relative to the TRU-016 concentration, releasing a proportional amount of ^51Cr into the assay supernatant. Following the incubation the plate is centrifuged at 250×g for 3 minutes at 20° C. A 25 μL volume of cell-free supernatant is removed from all wells to a scintillation plate (Perkin Elmer 6005185) and dried overnight. The amount of ^51Cr isotope in each well of the scintillation plate is measured using a Topcount plate reader (Perkin Elmer, C9904V0). The data are expressed as percent of specific release. Specific release is calculated as:
(Sample value−Spontaneous value)/(Maximum value−Spontaneous value)*100% • Spontaneous=amount of ^51Cr released from target cell only • Maximum release=amount of ^51Cr released from targets treated with detergent lysing agent • Background Control=amount of ^51Cr released from target cells+effector cells (No TRU-016)
A dose response is generated and fit to a 4-parameter logistic curve using SoftMax Pro software (Molecular Devices, ver 5.0.1). Titrations of TRU-016 are utilized to create dose response curves of test and reference material for comparison. The EC50 values for the treated articles are compared to the untreated control (no CS) to determine the percent increase in ADCC activity.

[2] = system: BJAB B cells; assay: ADCC activity, 51Cr release, PBMC effector cells; format: cell-based, human; details: for ADCC activity (% specific killing) of TRU-015 purified protein: 0, 2, 5, 10, 30 or 100 μg/mL castanospermine in culture media
Protocol: To determine the ADCC activity of purified TRU-016, labeled BJAB B cells were used as targets and human peripheral blood mononuclear cells (PBMC) as effector cells. BJAB B cells (10^7 cells) were labeled with 500 μCi/mL ^51Cr sodium chromate for 2 hours at 37° C. in IMDM/10% FBS. PBMCs were isolated from heparinized, human whole blood by fractionation over Lymphocyte Separation Media (LSM, ICN Biomedical) gradients. Reagent samples were added to RPMI media with 10% FBS and serial dilutions of each reagent were prepared. The ^51Cr labeled BJAB were added at 2×10^4 cells/well. The PBMCs were then added at 5×10^5 cells/well for a final ratio of 25:1 effectors (PBMC):targets (BJAB). Reactions were set up in quadruplicate wells of a 96 well plate. Reactions were allowed to proceed for 6 hours at 37° C. in 5% CO2 prior to harvesting and counting. CPM released was measured on a Packard TopCounNXT from 50 μl dried culture supernatant. Percent specific killing was calculated by subtracting (cpm [mean of quadruplicate samples] of sample—cpm spontaneous release)/(cpm maximal release-cpm spontaneous release) x100, and data were plotted as % specific killing versus TRU-016 concentration.

[3] = system: CHO cells expressing TRU-016; assay: Culturing CHO host cells with carbohydrate modifier: cell growth and viability; format: cell-based, Chinese hamster; details: castanospermine up to 1000 μM, all time periods up to 144 hours
Protocol: For shake flask runs, log phase host cells were seeded in shake flasks at 100,000 cells/ml with carbohydrate modifier at the concentration to be tested, and optionally with methotrexate (MTX) @ 50 nM
Cells were seeded at 3×10E6/mL in 1350 mL of Ex-Cell 302 culture media (SATC Biosciences; with added non-essential amino acids, pyrucate, L-glutamine, pen/strep, HT Supplement and insulin, all from Invitrogen) at t=0 and brought to 5 L total volume at T>=72 hours. The cells were incubated at 37° C. and 5% carbon dioxide and monitored for growth and viability daily starting at day 6-7. Supernatants were typically harvested at day 10-12 when cell viability dropped below 60%.
Na-Azide was added to 0.02%, cells were removed by centrifugation and supernatant was filter sterilized through a 0.22 uM filter. Some assays described in other examples herein were performed on the supernatants as indicated, while other assays were performed on material that underwent further protein A purification. […] Cells were incubated at 37° C. and 5% carbon dioxide and monitored daily for growth and viability. […]

| Compound | ADCC activity relative to untreated TRU-016 [1] | ADCC activity (% specific killing) of TRU-016 purified protein ([2]; 0, 10, 25, 50, 100 or 200 μM castanospermine in culture media) | ADCC (% specific killing) of TRU-016 purified protein ([2]; 200 μM DMJ, 10 μM kifenunsine or 200 μM castanospermine in culture media) | ADCC activity (% specific killing) of TRU-015 purified protein ([2]; PBMC from high affinity (V/V158) CD16 donors) | ADCC activity (% specific killing) of TRU-015 purified protein ([2]; PBMC from low affinity (F/F158) CD16 donors) | cell counts [3] | percent cell viability [3] |
| --- | --- | --- | --- | --- | --- | --- | --- |
| TRU-016: recombinant single chain protein (SMIP) that binds CD37; G28-1 binding domain, modified hinge, human IgG1 CH2 and CH3; SEQ ID NO: 2 | significantly increased | – | – | – | – | – | – |
| O[C@H]1[C@H](O)[C@@H](O)CN2CC[C@H](O)[C@H]12 [castanospermine] | – | dose-dependent increase | improved ADCC | dose-dependent increase | dose-dependent increase | did not affect | did not affect |
